Experimental data from patent publication US20260309717A1, “PROXIMITY INDUCING SYSTEM AND USES THEREOF” (SORBONNE UNIVERSITE, priority 2022, published 2026).

Assays:
[1] = molecular target: T1, mCherry-^FIREtag / ^FIREmate-ECFP-Giantin (Halorhodospira halophila, UniProt P16113, A30V/C69G/D97P/F96I, form not given/G21E/G25R/K17N/M100R/M109L/Q41L/Q99S/S72T/T101G/V83A/Y94W/Y98T); test: Recruitment of cytoplasmic protein to the Golgi apparatus, HeLa cells; type: cell-based; conditions: 10 μM
T1 construct: FIREmate-ECFP-Giantin(3131-3259) and mCherry-FIREtag in HeLa cells
T1 sequence (P16113 1-114 A30V/C69G/D97P/F96I/G21E/G25R/K17N/M100R/M109L/Q41L/Q99S/S72T/T101G/V83A/Y94W/Y98T): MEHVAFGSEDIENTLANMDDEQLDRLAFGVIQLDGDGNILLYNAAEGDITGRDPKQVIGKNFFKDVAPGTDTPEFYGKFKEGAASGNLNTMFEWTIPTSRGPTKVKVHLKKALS
Procedure: FIGS. 6A-E illustrate the recruitment of cytoplasmic proteins to the Golgi apparatus with the proximity inducing system described herein. FIG. 6A is a representation of the experimental design wherein HeLa cells co-expressing mCherry-^FIREtag and ^FIREmate-ECFP-Giantin were treated with 10 µM of match (either HBR-2,5DM or HMBR), and imaged by time-lapse confocal microscopy. FIGS. 6B-C are graphs showing the temporal evolution of the FIRE signal detected upon addition at 0 min of HBR-2,5DM (match1-6B) or HMBR (match2-6C). Data represents the mean values±SD of 10 cells from n=3 independent experiments (6B, D), or of 12 cells from n=3 independent experiments (6C, E). FIGS. 6D-E are sets of representative confocal micrographs of cells before (0 min) and after (5 min) addition of HBR-2,5DM (match1-6D) or HMBR (match2-6E) (mCherry: ex/em 561/606-675 nm; FIRE: ex/em 488/508-570 nm; ECFP: ex/em 445/455-499 nm). […] Scale bars are 20 μm.
(§1) The confocal micrographs were acquired on a Zeiss LSM 980 Laser Scanning Microscope equipped with a plan apochromat 63x/1.4 NA oil immersion objective. ZEN software was used to collect the data. The images were analyzed using Icy (2.4.0.0) and Fiji (Image J). In short, to track fluorescence signal in a specific organelle, a ROI (region of interest) was determined by masking the signal in the ECFP (Enhanced Cyan Fluorescent Protein) channel with the plug-in HK-means with the following parameters: intensity class equals 100, minimum object size (pixels or px) equals 500, maximum object size (px) equals 1500-3000. The signal intensity of the ROI was tracked over time for each channel by using plug-in Active Contours. The background signal was subtracted. Data were processed using GraphPad Prism v9.3.0.
To further evaluate the scope of the proximity inducing system described herein and show its versatility, ^FIREmate was anchored at the membrane of various organelles or cellular structures so that ^FIREmate faced the cytosol. ^FIREmate was thus fused: • to the N-terminus of the transmembrane domain (amino acid residues at positions 3131-3259) of Giantin for location at the cis-medial rims of the Golgi apparatus (FIG. 6A), • to the N-terminus of the transmembrane domain (amino acid residues at positions 100-134) of the cytochrome b5 (Cb5) for location at the endoplasmic reticulum membrane (FIG. 7A), and • to the C-terminus of the Lyn11 inner membrane targeting sequence for location at the plasma membrane (FIG. 8A).
For each construct, an ECFP was inserted between ^FIREmate and the other protein domain/sequence to monitor the localization of the resulting fusion protein (blue fluorescence). Each fusion protein was co-expressed in mammalian cells (HeLa cells or HEK293 cells as indicated) together with mCherry-^FIREtag (red fluorescence). […]

[2] = molecular target: T2, mCherry-caged^FIREtag / ^FIREmate-ECFP-Giantin (Halorhodospira halophila, UniProt P16113, A30V/C69G/D97P/F96I, form not given/G21E/G25R/K17N/M100R/M109L/Q41L/Q99S/S72T/T101G/V83A/Y94W/Y98T); test: Recruitment of mCherry-caged^FIREtag to the Golgi, confocal microscopy, HeLa cells; type: cell-based; conditions: 10 μM
T2 construct: mCherry-caged FIREtag (PYP 2-114 C69G cage) and FIREmate-ECFP-Giantin in HeLa cells
T2 sequence (P16113 1-114 A30V/C69G/D97P/F96I/G21E/G25R/K17N/M100R/M109L/Q41L/Q99S/S72T/T101G/V83A/Y94W/Y98T): T1 sequence (P16113 1-114 A30V/C69G/D97P/F96I/G21E/G25R/K17N/M100R/M109L/Q41L/Q99S/S72T/T101G/V83A/Y94W/Y98T)
Procedure: FIGS. 11A-C illustrate the use of a caged proximity inducing system as described herein. FIG. 11A is a representation of the experimental design wherein HeLa cells co-expressing mCherry-caged^FIREtag and ^FIREmate-ECFP-Giantin were treated with 10 μM of match (i.e., HBR-2,5DM), and imaged by time-lapse confocal microscopy. FIG. 11B is a graph showing the temporal evolution of the FIRE signal detected upon addition of HBR-2,5DM at 0 min, either with ^FIREtag or with caged^FIREtag. Data represents the mean values±SD of 7 cells from n=3 independent experiments. FIG. 11C is a set of representative confocal micrographs of cells before (0 min) and after (9 min) addition of HBR-2,5DM (match1) (mCherry: ex/em 561/606-675 nm; FIRE: ex/em 488/508-570 nm; ECFP: ex/em 445/455-499 nm). […] Scale bars are 20 μm.
as §1, with “ZEN software was used to collect the data.” left out, “The signal intensity of the ROI was tracked over time for each channel by using plug-in Active Contours. The background signal was subtracted. Data were processed using GraphPad Prism v9.3.0.” left out

SMILES: Cc1cc(/C=C2\SC(=S)NC2=O)c(C)cc1O [HBR-2,5DM, (Z)-5-(4-hydroxy-2,5-dimethylbenzylidene)-2-thioxo-1,3-thiazolidin-4-one]
- FIRE signal at the Golgi apparatus [1]: simultaneous appearance of green fluorescence
- translocation of mCherry-^FIREtag to the Golgi apparatus [1]: rapid translocation of mCherry-^FIREtag to the organelle
- kinetics of ternary assembly formation with caged^FIREtag, compared to ^FIREtag [2]: slower kinetics
- recruitment of mCherry-caged^FIREtag to the Golgi ([2]; 9 min): efficient recruitment of mCherry-caged^FIREtag to the Golgi
